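Following 48 hours of exposure in 96-well plates, responses at five concentrations were used to interpolate endpoints linearly. TGI: concentration producing complete growth inhibition.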
Tests used:
Assay in all cases: growth of human tumour cells (NCI), 48 h
HL-60(TB) leukemia = tested on: HL-60(TB) leukemia
NCI-H522 lung = tested on: NCI-H522 lung
PC-3 prostate = tested on: PC-3 prostate
NCI/ADR-RES ovarian = tested on: NCI/ADR-RES ovarian
RXF 393 renal = tested on: RXF 393 renal
SF-295 CNS = tested on: SF-295 CNS
UO-31 renal = tested on: UO-31 renal
T-47D breast = tested on: T-47D breast
MCF7 breast = tested on: MCF7 breast
A498 renal = tested on: A498 renal
A549 NSCLC = tested on: A549 NSCLC
SNB-19 CNS = tested on: SNB-19 CNS
CCRF-CEM leukemia = tested on: CCRF-CEM leukemia

Compound	TGI (HL-60(TB) leukemia)	TGI (NCI-H522 lung)	TGI (PC-3 prostate)	TGI (NCI/ADR-RES ovarian)	TGI (RXF 393 renal)	TGI (SF-295 CNS)	TGI (UO-31 renal)	TGI (T-47D breast)	TGI (MCF7 breast)	TGI (A498 renal)	TGI (A549 NSCLC)	TGI (SNB-19 CNS)	TGI (CCRF-CEM leukemia)
N#CC(C#N)=C1C(=Cc2ccc(OCCCCCCCCCCSSCCCCCCCCCCOc3ccc(C=C4C(=C(C#N)C#N)c5ccccc5C4=C(C#N)C#N)cc3)cc2)C(=C(C#N)C#N)c2ccccc21	2.36 µM	34.7 µM	47.8 µM	38.8 µM	67.2 µM	45.7 µM	40.2 µM	> 100 µM	48 µM	48.5 µM	31 µM	–	–
CC1=NN(c2nc(N)nc(/C(C#N)=C/c3ccccc3O)n2)C(C)(C)C1	65.3 µM	36 µM	31.6 µM	47 µM	39.5 µM	30.7 µM	36.5 µM	31.9 µM	64.9 µM	62.9 µM	31.5 µM	91.7 µM	35.5 µM
O=C1NC(N/N=C/C(O)C(O)C(O)C(O)CO)=N/C1=C\c1ccco1 (configuration not stated)	> 100 µM	> 100 µM	> 100 µM	> 100 µM	> 100 µM	> 100 µM	–	> 100 µM	> 100 µM	> 100 µM	> 100 µM	> 100 µM	> 100 µM
C=CCC1(O)CC(n2cc(C)c(=O)[nH]c2=O)OC1CO[Si](C)(C)C(C)(C)C (configuration not stated)	–	–	> 100 µM	> 100 µM	> 100 µM	> 100 µM	> 100 µM	> 100 µM	> 100 µM	> 100 µM	> 100 µM	> 100 µM	> 100 µM
O=C(C1OC1c1ccc(Cl)cc1)C12CC3CC(CC(C3)C1)C2 (configuration not stated)	42.6 µM	42.5 µM	79.9 µM	49 µM	39.2 µM	58.6 µM	41.9 µM	> 100 µM	73.9 µM	46.7 µM	48.5 µM	> 100 µM	52.3 µM
Nc1ncc(Br)c(NCC2(CO)CCC2)n1	> 100 µM	> 100 µM	> 100 µM	> 100 µM	> 100 µM	> 100 µM	> 100 µM	63.4 µM	> 100 µM	> 100 µM	> 100 µM	–	> 100 µM
Cc1ccc(N=N/C(=N/NC(=O)c2cc(Cl)ccc2O)c2ccc(N(CCC#N)CCC#N)cc2C)cc1	> 100 µM	31.4 µM	> 100 µM	> 100 µM	> 100 µM	83.3 µM	64.9 µM	56.2 µM	> 100 µM	49.5 µM	> 100 µM	> 100 µM	> 100 µM
COc1cccc(-c2nc3ccccc3c(=O)[nH]2)c1	> 100 µM	60.8 µM	41.7 µM	51.8 µM	56.6 µM	88.9 µM	45.2 µM	50.5 µM	43.1 µM	51.6 µM	49.4 µM	46.7 µM	–
C[N+](C)(CCCn1ccnc1[N+](=O)[O-])CCCn1ccnc1[N+](=O)[O-]	> 100 µM	> 100 µM	> 100 µM	> 100 µM	> 100 µM	> 100 µM	> 100 µM	> 100 µM	> 100 µM	> 100 µM	> 100 µM	–	> 100 µM
CC(C)(C)c1cc(C(=O)/C=C/c2c(Cl)cccc2Cl)cc(C(C)(C)C)c1O	25.9 µM	17.5 µM	> 63.9 µM	77.9 µM	14.9 µM	42.2 µM	28.1 µM	18 µM	46 µM	> 100 µM	> 100 µM	29.7 µM	22 µM
C1=CC2C=CC(C=C1)P2c1ccccc1 (configuration not stated)	> 100 µM	> 100 µM	> 100 µM	> 100 µM	> 100 µM	> 100 µM	> 100 µM	> 100 µM	> 100 µM	> 100 µM	> 100 µM	> 100 µM	> 100 µM
CS(=O)(=O)OCCCCOS(=O)(=O)CF	> 100 µM	> 100 µM	> 100 µM	> 100 µM	> 100 µM	> 100 µM	> 100 µM	> 100 µM	> 100 µM	> 100 µM	> 100 µM	> 100 µM	> 100 µM
CO[C@]1(c2ccc([N+](=O)[O-])cc2)Oc2ccccc2C(=O)[C@@]1(Nc1ccc(C=O)cc1)OC	> 10 µM	–	> 10 µM	> 10 µM	> 10 µM	> 10 µM	> 10 µM	> 10 µM	> 10 µM	> 10 µM	> 10 µM	> 10 µM	> 10 µM
C=Cc1nc2c(Cl)ncnc2n1Cc1ccccc1	9.17 µM	3.83 µM	14.5 µM	23.1 µM	7.84 µM	32.2 µM	6.02 µM	6.75 µM	9.53 µM	22.4 µM	29.1 µM	31.5 µM	> 100 µM
NC(N)=Nc1ccc(-c2ccc(N=C(N)N)cc2)cc1	> 100 µM	> 100 µM	75.9 µM	> 100 µM	> 100 µM	> 100 µM	> 100 µM	> 100 µM	> 100 µM	> 100 µM	> 100 µM	> 100 µM	> 95.7 µM
NC(=O)C(=CNC(N)=S)C(N)=O	> 100 µM	> 100 µM	> 100 µM	> 100 µM	> 100 µM	> 100 µM	> 100 µM	> 100 µM	> 100 µM	> 100 µM	> 100 µM	> 100 µM	> 100 µM
CN1CCc2cc3c(c4c2C1C(O)c1ccccc1-4)OCO3 (configuration not stated)	5.06 µM	13.7 µM	18.6 µM	53.9 µM	10.8 µM	21.1 µM	34 µM	> 100 µM	19.3 µM	8.45 µM	52.1 µM	> 100 µM	9.69 µM
